{"source": "patent US20260232662A1", "about": "“MIR-124 INDUCER, AND PREPARATION METHOD THEREFOR AND USE THEREOF” (NANJING SYNNOCARE PHARMACEUTICAL TECHNOLOGY CO., LTD., priority 2023, published 2026)", "data": [{"tested_on": "miR-124", "assay": "Induction of miR-124 expression in PBMC cells (qPCR)", "format": "cell-based", "conditions": "Homo sapiens, 72 h, 0.1 μM compound, human PBMCs stimulated with PMA/ionomycin, miR-191 reference gene, read-out: miR-124 expression, Fold change vs DMSO", "protocol": "This study evaluated the ability of the compound of the present invention to influence miR-124 transcriptional activity in vitro. The experiment analyzed miR-124 expression in human PBMCs (Sailybio) using quantitative PCR (qPCR).\nThawed human PBMCs (1 mL) were added to 19 mL of culture medium (RPMI1640+10% hFBS+1‰ 2-mercaptoethanol) and the PBMCs were incubated in a cell culture incubator for 30 minutes. The PBMCs were collected and the cells (3.0*10^6 cells/well/3 mL) were resuspended in medium containing PMA (10 ng/mL; Invivogen) and ionomycin (200 ng/mL; Invivogen). The cells were incubated in a 6-well plate for 48 hours. Diluted compound was added to the cells to achieve a final concentration of 0.1 μM. After 72 hours, the samples were centrifuged and the cells were collected.\nTotal miRNA was extracted from the cells using the MiPure Cell/Tissue miRNA Kit (Vazyme) according to the manufacturer's instructions, followed by purification. The purified samples were treated with genomic DNA elimination buffer, and reverse transcription was performed using a GeneAmp PCR System. The resulting cDNA was subjected to quantitative real-time PCR (qPCR) analysis on a QuantStudio™ 7 Flex Real-Time PCR System. Data analysis was performed using the QuantStudio 7 software with default settings to automatically determine Ct values, and the results were exported. In this assay, miR-191 was used as the reference gene, and the DMSO-treated group served as the control. The relative expression of miR-124 was calculated using the following formula: […]", "values": [{"smiles": "Cn1c(=O)c(Nc2ccc(OC(F)(F)F)cc2)nc2c(Cl)cccc21", "note": "[Compound 1, 5-Chloro-1-methyl-3-((4-(trifluoromethoxy)phenyl)amino) quinoxalin-2(1H)-one]", "fold induction at 0.1 µM": 16}, {"smiles": "FC(F)(F)Oc1ccc(Nc2nc3c(Cl)cccc3n3cnnc23)cc1", "note": "[Compound 6]", "fold induction at 0.1 µM": 11.9}, {"smiles": "FC(F)(F)Oc1ccc(NC2=Nc3c(Cl)cccc3N3CCN=C23)cc1", "note": "[Compound 9]", "fold induction at 0.1 µM": 26.9}, {"smiles": "Cn1c(=O)c(Nc2ccc(SC(F)(F)F)cc2)nc2c(Cl)cccc21", "note": "[Compound 10]", "fold induction at 0.1 µM": 15.4}, {"smiles": "Cn1c(=O)c(Nc2ccc(C(F)(F)F)cc2)nc2c(Cl)cccc21", "note": "[Compound 11]", "fold induction at 0.1 µM": 18.4}, {"smiles": "Cn1c(=O)c(Nc2ccc3c(c2)OC(F)(F)O3)nc2c(Cl)cccc21", "note": "[Compound 12]", "fold induction at 0.1 µM": 22}, {"smiles": "Cn1c(=O)c(Nc2ccc(OC(F)(F)F)cc2)nc2c(F)cc(Cl)cc21", "note": "[Compound 13]", "fold induction at 0.1 µM": 20.9}, {"smiles": "Cn1c(=O)c(Nc2ccc3c(c2)OC(F)(F)O3)nc2c(F)cc(Cl)cc21", "note": "[Compound 14]", "fold induction at 0.1 µM": 24.7}, {"smiles": "FC(F)(F)Sc1ccc(Nc2nc3c(Cl)cccc3n3ccnc23)cc1", "note": "[Compound 15]", "fold induction at 0.1 µM": 12.7}, {"smiles": "FC(F)(F)c1ccc(Nc2nc3c(Cl)cccc3n3ccnc23)cc1", "note": "[Compound 16]", "fold induction at 0.1 µM": 13.4}, {"smiles": "FC1(F)Oc2ccc(Nc3nc4c(Cl)cccc4n4ccnc34)cc2O1", "note": "[Compound 17]", "fold induction at 0.1 µM": 19}, {"smiles": "FC(F)Oc1ccc(Nc2nc3c(Cl)cccc3n3ccnc23)cc1", "note": "[Compound 21]", "fold induction at 0.1 µM": 15.5}, {"smiles": "FS(F)(F)(F)(F)c1ccc(Nc2nc3c(Cl)cccc3n3ccnc23)cc1", "note": "[Compound 22]", "fold induction at 0.1 µM": 15.3}, {"smiles": "Fc1cc(Nc2nc3c(Cl)cccc3n3ccnc23)ccc1C(F)(F)F", "note": "[Compound 28]", "fold induction at 0.1 µM": 10.4}, {"smiles": "FC(F)(F)c1ccc(Nc2nc3c(Cl)cccc3n3ccnc23)cc1Cl", "note": "[Compound 29]", "fold induction at 0.1 µM": 9.32}, {"smiles": "FC(F)(F)c1ccc(Nc2nc3c(Cl)cccc3n3ccnc23)nc1", "note": "[Compound 34]", "fold induction at 0.1 µM": 14.7}, {"smiles": "FC1(F)Cc2cc(Nc3nc4c(Cl)cccc4n4ccnc34)ccc2O1", "note": "[Compound 39, 6-Chloro-N-(2,2-difluoro-2,3-dihydrobenzofuran-5-yl) imidazolo [1,2-a] quinoxalin-4-amine]", "fold induction at 0.1 µM": 16.8}, {"smiles": "FC1(F)Oc2ccc(Nc3nc4c(Cl)cccc4n4ccnc34)cc2C1(F)F", "note": "[Compound 40, 6-Chloro-N-(2,2,3,3-tetrafluoro-2,3-dihydrobenzofuran-5-yl) imidazolo [1,2-a] quinoxalin-4-amine]", "fold induction at 0.1 µM": 17.5}, {"smiles": "Fc1cccc2c1nc(Nc1ccc(OC(F)(F)F)cc1)c1nccn12", "note": "[Compound 41]", "fold induction at 0.1 µM": 24.4}, {"smiles": "Fc1cccc2c1nc(Nc1ccc3c(c1)OC(F)(F)O3)c1nccn12", "note": "[Compound 42]", "fold induction at 0.1 µM": 14.1}, {"smiles": "Fc1cccc2c1nc(Nc1ccc(OC(F)(F)F)c(Cl)c1)c1nccn12", "note": "[Compound 44]", "fold induction at 0.1 µM": 17.5}, {"smiles": "Fc1cccc2c1nc(Nc1ccc(C(F)(F)F)cc1)c1nccn12", "note": "[Compound 45]", "fold induction at 0.1 µM": 17.9}, {"smiles": "Fc1cc(Nc2nc3c(F)cccc3n3ccnc23)ccc1C(F)(F)F", "note": "[Compound 46]", "fold induction at 0.1 µM": 9.99}, {"smiles": "Fc1cccc2c1nc(Nc1ccc(C(F)(F)F)c(Cl)c1)c1nccn12", "note": "[Compound 47]", "fold induction at 0.1 µM": 9.86}, {"smiles": "FC(F)(F)Oc1ccc(Nc2nc3c(Br)cccc3n3ccnc23)cc1", "note": "[Compound 48]", "fold induction at 0.1 µM": 20.4}, {"smiles": "Fc1cc(Nc2nc3c(Br)cccc3n3ccnc23)ccc1OC(F)(F)F", "note": "[Compound 49]", "fold induction at 0.1 µM": 19.5}, {"smiles": "FC(F)(F)Oc1ccc(Nc2nc3c(Br)cccc3n3ccnc23)cc1Cl", "note": "[Compound 50]", "fold induction at 0.1 µM": 18.5}, {"smiles": "FC(F)(F)c1ccc(Nc2nc3c(Br)cccc3n3ccnc23)cc1", "note": "[Compound 51]", "fold induction at 0.1 µM": 23.1}, {"smiles": "Fc1cc(Nc2nc3c(Br)cccc3n3ccnc23)ccc1C(F)(F)F", "note": "[Compound 52]", "fold induction at 0.1 µM": 22.3}, {"smiles": "Fc1cc(Cl)cc2c1nc(Nc1ccc(OC(F)(F)F)cc1)c1nccn12", "note": "[Compound 54]", "fold induction at 0.1 µM": 14.9}, {"smiles": "Fc1cc(Cl)cc2c1nc(Nc1ccc3c(c1)OC(F)(F)O3)c1nccn12", "note": "[Compound 55]", "fold induction at 0.1 µM": 22.3}, {"smiles": "Fc1cc(Nc2nc3c(F)cc(Cl)cc3n3ccnc23)ccc1OC(F)(F)F", "note": "[Compound 56]", "fold induction at 0.1 µM": 17.2}, {"smiles": "Fc1cc(Cl)cc2c1nc(Nc1ccc(C(F)(F)F)cc1)c1nccn12", "note": "[Compound 58]", "fold induction at 0.1 µM": 27.3}, {"smiles": "FC(F)(F)Oc1ccc(Nc2nc3c(Cl)cc(Cl)cc3n3ccnc23)cc1", "note": "[Compound 61]", "fold induction at 0.1 µM": 12.1}, {"smiles": "FC(F)(F)c1ccc(Nc2nc3c(Cl)cc(Cl)cc3n3ccnc23)cc1", "note": "[Compound 62]", "fold induction at 0.1 µM": 15.5}, {"smiles": "Fc1cc(Nc2nc3c(Cl)cc(Cl)cc3n3ccnc23)ccc1C(F)(F)F", "note": "[Compound 63]", "fold induction at 0.1 µM": 18.4}, {"smiles": "FC(F)(F)Oc1ccc(Nc2nc3c(Cl)cc(Cl)cc3n3ccnc23)cc1Cl", "note": "[Compound 66]", "fold induction at 0.1 µM": 22.7}, {"smiles": "Fc1cc(NC2=Nc3c(Cl)cccc3N3CCN=C23)ccc1C(F)(F)F", "note": "[Compound 69]", "fold induction at 0.1 µM": 22.9}, {"smiles": "FC(F)(F)Oc1ccc(NC2=Nc3c(Cl)cccc3N3CCN=C23)cc1Cl", "note": "[Compound 72]", "fold induction at 0.1 µM": 19}, {"smiles": "Fc1cccc2c1N=C(Nc1ccc(OC(F)(F)F)cc1)C1=NCCN12", "note": "[Compound 73]", "fold induction at 0.1 µM": 8.59}, {"smiles": "Fc1cccc2c1N=C(Nc1ccc(C(F)(F)F)cc1)C1=NCCN12", "note": "[Compound 74]", "fold induction at 0.1 µM": 31.6}, {"smiles": "FC(F)(F)Oc1ccc(NC2=Nc3c(Br)cccc3N3CCN=C23)cc1", "note": "[Compound 79]", "fold induction at 0.1 µM": 17.8}, {"smiles": "FC(F)(F)c1ccc(NC2=Nc3c(Br)cccc3N3CCN=C23)cc1", "note": "[Compound 80]", "fold induction at 0.1 µM": 19.8}, {"smiles": "Fc1cc(NC2=Nc3c(Br)cccc3N3CCN=C23)ccc1C(F)(F)F", "note": "[Compound 81]", "fold induction at 0.1 µM": 15.3}, {"smiles": "Fc1cc(NC2=Nc3c(Br)cccc3N3CCN=C23)ccc1OC(F)(F)F", "note": "[Compound 83]", "fold induction at 0.1 µM": 18.3}, {"smiles": "FC(F)(F)Oc1ccc(NC2=Nc3c(Cl)cc(Cl)cc3N3CCN=C23)cc1", "note": "[Compound 85]", "fold induction at 0.1 µM": 10.4}, {"smiles": "FC(F)(F)Oc1ccc(NC2=Nc3c(Cl)cc(Cl)cc3N3CCN=C23)cc1Cl", "note": "[Compound 87]", "fold induction at 0.1 µM": 15.8}, {"smiles": "Fc1cc(Cl)cc2c1N=C(Nc1ccc(OC(F)(F)F)cc1)C1=NCCN12", "note": "[Compound 91]", "fold induction at 0.1 µM": 27.6}, {"smiles": "Fc1cc(NC2=Nc3c(F)cc(Cl)cc3N3CCN=C23)ccc1OC(F)(F)F", "note": "[Compound 92]", "fold induction at 0.1 µM": 18.8}, {"smiles": "Fc1cc(Cl)cc2c1N=C(Nc1ccc(C(F)(F)F)cc1)C1=NCCN12", "note": "[Compound 95]", "fold induction at 0.1 µM": 27}, {"smiles": "Fc1cc(NC2=Nc3c(F)cc(Cl)cc3N3CCN=C23)ccc1C(F)(F)F", "note": "[Compound 96]", "fold induction at 0.1 µM": 17.7}, {"smiles": "Fc1cccc2nc(Nc3ccc(OC(F)(F)F)cc3)c3nccn3c12", "note": "[Compound B2, 9-fluoro-N-(4-(trifluoromethoxy)phenyl)imidazolo [1,2-a]quinoxalin-4-amine]", "fold induction at 0.1 µM": 37.4}, {"smiles": "FC(F)(F)Oc1ccc(Nc2nc3cccc(Br)c3n3ccnc23)cc1", "note": "[Compound B3, 9-bromo-N-(4-(trifluoromethoxy)phenyl)imidazolo [1,2-a]quinoxalin-4-amine]", "fold induction at 0.1 µM": 23.5}, {"smiles": "Fc1ccc2nc(Nc3ccc(OC(F)(F)F)cc3)c3nccn3c2c1", "note": "[Compound B5, 8-fluoro-N-(4-(trifluoromethoxy)phenyl)imidazolo [1,2-a]quinoxalin-4-amine]", "fold induction at 0.1 µM": 31.3}, {"smiles": "FC(F)(F)Oc1ccc(Nc2nc3ccc(Br)cc3n3ccnc23)cc1", "note": "[Compound B6, 8-bromo-N-(4-(trifluoromethoxy)phenyl)imidazolo [1,2-a]quinoxalin-4-amine]", "fold induction at 0.1 µM": 22}, {"smiles": "Fc1ccc2c(c1)nc(Nc1ccc(OC(F)(F)F)cc1)c1nccn12", "note": "[Compound B8, 7-fluoro-N-(4-(trifluoromethoxy)phenyl)imidazolo [1,2-a]quinoxalin-4-amine]", "fold induction at 0.1 µM": 33.5}, {"smiles": "FC(F)(F)Oc1ccc(Nc2nc3ccc(Cl)c(Cl)c3n3ccnc23)cc1", "note": "[Compound B16, 8,9-dichloro-N-(4-(trifluoromethoxy)phenyl)imidazolo [1,2-a]quinoxalin-4-amine]", "fold induction at 0.1 µM": 33.4}, {"smiles": "Fc1ccc2nc(Nc3ccc(OC(F)(F)F)cc3)c3nccn3c2c1Cl", "note": "[Compound B17, 9-chloro-8-fluoro-N-(4-(trifluoromethoxy)phenyl)imidazolo [1,2-a]quinoxalin-4-amine]", "fold induction at 0.1 µM": 31.9}, {"smiles": "FC(F)(F)Oc1ccc(Nc2nc3ccc(Br)c(Cl)c3n3ccnc23)cc1", "note": "[Compound B18, 8-bromo-9-chloro-N-(4-(trifluoromethoxy)phenyl)imidazolo [1,2-a]quinoxalin-4-amine]", "fold induction at 0.1 µM": 22.6}, {"smiles": "FC(F)(F)Oc1ccc(Nc2nc3cc(Cl)cc(Cl)c3n3ccnc23)cc1", "note": "[Compound B21, 7,9-dichloro-N-(4-(trifluoromethoxy)phenyl)imidazolo [1,2-a]quinoxalin-4-amine]", "fold induction at 0.1 µM": 35.2}, {"smiles": "Fc1cc(Cl)c2c(c1)nc(Nc1ccc(OC(F)(F)F)cc1)c1nccn12", "note": "[Compound B22, 9-chloro-7-fluoro-N-(4-(trifluoromethoxy)phenyl)imidazolo [1,2-a]quinoxalin-4-amine]", "fold induction at 0.1 µM": 32.5}]}]}
